Assay results from EP0497091A1, “Bridged cyclic ketal derivatives” (GLAXO GROUP LIMITED, priority 1991, dated 1992).
≈ marks a conversion by molar mass, not a printed value.

Experiments:
squalene synthase = biological target: T1, squalene synthase (Rattus norvegicus, UniProt Q02769); test: Inhibition of squalene synthase ([14C]squalene production from [2-14C]farnesylpyrophosphate); assay type: biochemical
T1 construct: from tissue; host or cells: rat liver homogenate
T1 sequence (Q02769 1-416): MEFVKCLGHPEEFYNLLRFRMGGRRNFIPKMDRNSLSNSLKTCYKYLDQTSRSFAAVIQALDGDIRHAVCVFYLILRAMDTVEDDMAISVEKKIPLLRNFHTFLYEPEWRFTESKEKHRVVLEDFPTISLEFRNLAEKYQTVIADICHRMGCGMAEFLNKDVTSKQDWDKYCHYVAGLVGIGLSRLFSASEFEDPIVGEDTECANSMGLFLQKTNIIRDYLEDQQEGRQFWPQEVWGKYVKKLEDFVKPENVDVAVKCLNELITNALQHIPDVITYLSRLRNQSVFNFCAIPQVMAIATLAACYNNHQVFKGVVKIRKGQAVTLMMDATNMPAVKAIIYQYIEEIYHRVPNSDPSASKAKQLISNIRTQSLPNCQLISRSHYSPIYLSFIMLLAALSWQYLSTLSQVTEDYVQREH
Description: A. Biller et al. in J. […] [¹⁴C]squalene is separated from unreacted substrate on thin layer chromatography plates and determined by liquid scintillation counting. […] Acta, Volume 877, 50-60 (1986) and modified to include measurement of cholesterol by high performance liquid chromatography (h.p.l.c.). […] A. […] [¹⁴C] Squalene was separated from unreacted substrate on thin layer chromatography plates and determined by liquid scintillation counting. Inhibition of squalene synthase was quantified by incubating rat liver homogenate with various concentrations of the test compound in the presence of [2-¹⁴C] farnesylpyrophosphate. The concentration of compound giving 50% inhibition of [¹⁴C] squalene production in a 30 minute assay was taken as the IC₅₀ value.

[1] = system: clinically relevant pathogens; test: In vitro antifungal activity, agar plate MIC determination; assay type: cell-based; details: Candida albicans
Procedure: The in vitro evaluation of the anti-fungal activity of compounds of the invention can be performed by determining the minimum inhibitory concentration (MIC) which is the concentration of the test compound in a suitable medium at which growth of a particular microorganism fails to occur.
[¹⁴C] Squalene was separated from unreacted substrate on thin layer chromatography plates and determined by liquid scintillation counting. Inhibition of squalene synthase was quantified by incubating rat liver homogenate with various concentrations of the test compound in the presence of [2-¹⁴C] farnesylpyrophosphate. The concentration of compound giving 50% inhibition of [¹⁴C] squalene production in a 30 minute assay was taken as the IC₅₀ value. […] In practice, a series of agar plates, each having the test compound incorporated at a particular concentration, was inoculated with a standard culture of a clinically relevant pathogen, for example Candida albicans, and each plate was then incubated at 37 °C for 24 to 48 hours depending on the pathogen.

| Compound | IC50 (squalene synthase) [µM] | MIC [1] [mg/L] |
| --- | --- | --- |
| C=C(CC[C@]12O[C@H](C(=O)O)[C@@](O)(C(=O)O)[C@](C(=O)O)(O1)[C@H](OC(=O)/C=C/[C@@H](C)C[C@@H](C)CC)[C@H]2O)[C@H](O)[C@H](C)Cc1ccccc1 (relative stereo) [Example 1, [1S-[1α(4S*,5S*),3α,4β,5α,6α(2E,4R*,6R*),7β]] 1-(4-Hydroxy-5-methyl-3-methylene-6-phenylhexyl)-4,6,7-trihydroxy-2,8-dioxabicyclo[3.2.1]octane-3,4,5-tricarboxylic acid, 6-(4,6-dimethyl-2-octenoate)] | < 0.1 | 0.1 to 31 (≈ 0.154 to 47.8 µM) |
| CC[C@H](C)C[C@H](C)CCC(=O)O[C@@H]1[C@@H](O)[C@@]2(C/C=C(\C)[C@@H](OC(C)=O)[C@H](C)Cc3ccccc3)O[C@H](C(=O)O)[C@@](O)(C(=O)O)[C@]1(C(=O)O)O2 (relative stereo) [Example 11, [1S-[1α[(E),4R*,5S*],3α,4β,5α,6α(4S*,6R*),7β]] 1-(4-Acetyloxy-3,5-dimethyl-6-phenyl-2-hexenyl)-4,6,7-trihydroxy-2,8-dioxabicyclo[3.2.1]octane-3,4,5-tricarboxylic acid, 6-(4,6-dimethyloctanoate)] | < 0.1 | 0.1 to 31 (≈ 0.144 to 44.7 µM) |
| C=C(CC[C@]12O[C@H](C(=O)O)[C@@](O)(C(=O)O)[C@](C(=O)O)(O1)[C@H](OC(=O)CCCCCCC)[C@H]2O)[C@@H](OC(C)=O)[C@H](C)Cc1ccccc1 (relative stereo) [Example 31, [1S-[1α(4R*,5S*),3α,4β,5α,6α,7β]] 1-(4-Acetyloxy-5-methyl-3-methylene-6-phenylhexyl)-4,6,7-trihydroxy-2,8-dioxabicyclo[3.2.1]octane-3,4,5-tricarboxylic acid, 6-octanoate] | < 0.1 | 0.1 to 31 (≈ 0.15 to 46.6 µM) |
| C=C(CC[C@]12O[C@H](C(=O)O)[C@@](O)(C(=O)O)[C@](C(=O)O)(O1)[C@H](OC(=O)CCCCCCc1ccccc1)[C@H]2O)[C@@H](OC(C)=O)[C@H](C)Cc1ccccc1 (relative stereo) [Example 39, [1S-[1α(4R*,5S*)3α,4β,5α,6α,7β]] 1-(4-Acetyloxy-5-methyl-3-methylene-6-phenylhexyl)-4,6,7-trihydroxy-2,8-dioxabicyclo[3.2.1]octane-3,4,5-tricarboxylic acid, 6-(7-phenylheptanoate)] | < 0.1 | 0.1 to 31 (≈ 0.138 to 42.7 µM) |
| C=C(CC[C@]12O[C@H](C(=O)O)[C@@](O)(C(=O)O)[C@](C(=O)O)(O1)[C@H](OC(=O)CCCC1CCCCC1)[C@H]2O)[C@@H](OC(C)=O)[C@H](C)Cc1ccccc1 (relative stereo) [Example 41, [1S-[1α(4R*,5S*),3α,4β,5α,6α,7β]] 1-(4-Acetyloxy-5-methyl-3-methylene-6-phenylhexyl)-4,6,7-trihydroxy-2,8-dioxabicyclo[3.2.1]octane-3,4,5-tricarboxylic acid, 6-(4-cyclohexylbutanoate)] | < 0.1 | 0.1 to 31 (≈ 0.145 to 44.9 µM) |
| C=C(CC[C@]12O[C@H](C(=O)O)[C@@](O)(C(=O)O)[C@](C(=O)O)(O1)[C@H](OC(=O)CC13CC4CC(CC(C4)C1)C3)[C@H]2O)[C@@H](OC(C)=O)[C@H](C)Cc1ccccc1 (relative stereo) [Example 45, [1S-[1α(4R*,5S*),3α,4β,5α,6α,7β]] 1-(4-Acetyloxy-5-methyl-3-methylene-6-phenylhexyl)-4,6,7-trihydroxy-2,8-dioxabicyclo[3.2.1]octane-3,4,5-tricarboxylic acid, 6-[1-(tricyclo[3.3.1.1^3,7]decyl)acetate]] | < 0.1 | 0.1 to 31 (≈ 0.14 to 43.4 µM) |
| C=C(CC[C@]12O[C@H](C(=O)O)[C@@](O)(C(=O)O)[C@](C(=O)O)(O1)[C@H](OC(=O)OCCCCCCCCC)[C@H]2O)[C@@H](OC(C)=O)[C@H](C)Cc1ccccc1 (relative stereo) [Example 57, [1S-[1α(4R*,5S*),3α,4β.5α,6α,7β]] 1-(4-Acetyloxy-5-methyl-3-methylene-6-phenylhexyl)-4,7-dihydroxy-6-[(nonoxycarbonyl)oxy]-2,8-dioxabicyclo[3.2.1]octane-3,4,5-tricarboxylic acid] | < 0.1 | 0.1 to 31 (≈ 0.141 to 43.7 µM) |
| C=C(CC[C@]12O[C@H](C(=O)O)[C@@](O)(C(=O)O)[C@](C(=O)O)(O1)[C@H](OC(=O)CC=CCCCC)[C@H]2O)[C@@H](OC(C)=O)[C@H](C)Cc1ccccc1 (relative stereo) [Example 64, [1S-[1α(4R*,5S*),3α,4β,5α,6α,7β]] 1-(4-Acetyloxy-5-methyl-3-methylene-6-phenylhexyl)-4,6,7-trihydroxy-2,8-dioxabicyclo[3.2.1]octane-3,4,5-tricarboxylic acid, 6-[(E/Z)-3-octenoate]] | < 0.1 | 0.1 to 31 (≈ 0.151 to 46.8 µM) |
| CCC(C)CC(C)CCC(=O)OC1C(O)C2(CCC(O)C(O)C(C)Cc3ccccc3)OC(C(=O)O)C(O)(C(=O)O)C1(C(=O)O)O2 (stereo not drawn) [Example 18, [1S-[1α(3R*S*,4R*,5S*),3α,4β,5α,6α(4S*,6R*),7β]] 1-(3,4-Dihydroxy-5-methyl-6-phenylhexyl)-4,6,7-trihydroxy-2,8-dioxabicyclo[3.2.1]octane-3,4,5-tricarboxylic acid, 6-(4,6-dimethyloctanoate)] | < 0.1 | 0.1 to 31 (≈ 0.153 to 47.3 µM) |
| C=C(CCC12OC(C(=O)O)C(O)(C(=O)O)C(C(=O)O)(O1)C(OC(=O)C=CC(C)CC(C)CC)C2OC(C)=O)C(OC(C)=O)C(C)Cc1ccccc1 (stereo not drawn) [Example 24, [1S-[1α(4R*,5S*),3α,4β,5α,6α(2E,4R*,6R*),7β]] 7-Acetyloxy-1-(4-acetyloxy-5-methyl-3-methylene-6-phenylhexyl)-4,6-dihydroxy-2,8-dioxabicyclo[3.2.1]octane-3,4,5-tricarboxylic acid, 6-(4,6-dimethyl-2-octenoate)] | < 0.1 | 0.1 to 31 (≈ 0.136 to 42.3 µM) |
